Measurements taken from patent US11208412B2 (DAEGU-GYEONGBUK MEDICAL INNOVATION FOUNDATION, priority 2017, dated 2021).

Key:
Assay in all cases: Kinase selectivity, DiscoverX scanMAX Kinase assay panel (% control)
Format in all cases: binding
[1] = molecular target: T1, kinases of the scanMAX Kinase assay panel (Homo sapiens, UniProt O00238); conditions: BMPR1B; 1 uM
T1 construct: purchased DiscoverX Co. (contract measurement) scanMAX Kinase assay panel
Method in brief: (§1)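 Read-out is % control, normalised so a positive-control compound sits at 0% and DMSO at 100%: (test − positive)/(negative − positive)×100. Each kinase received the compound at 1 uM in DMSO. A value below 35% counts as activity.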

[2] = molecular target: T2, kinases of the scanMAX Kinase assay panel (Homo sapiens, UniProt P04049); conditions: RAF1; 1 uM
T2 construct: purchased DiscoverX Co. (contract measurement) scanMAX Kinase assay panel
Method in brief: as §1

[3] = molecular target: T3, kinases of the scanMAX Kinase assay panel (Homo sapiens, UniProt P15056, V600E); conditions: BRAF(V600E); 1 uM
T3 construct: purchased DiscoverX Co. (contract measurement) scanMAX Kinase assay panel
T3 sequence (P15056 whole entry V600E): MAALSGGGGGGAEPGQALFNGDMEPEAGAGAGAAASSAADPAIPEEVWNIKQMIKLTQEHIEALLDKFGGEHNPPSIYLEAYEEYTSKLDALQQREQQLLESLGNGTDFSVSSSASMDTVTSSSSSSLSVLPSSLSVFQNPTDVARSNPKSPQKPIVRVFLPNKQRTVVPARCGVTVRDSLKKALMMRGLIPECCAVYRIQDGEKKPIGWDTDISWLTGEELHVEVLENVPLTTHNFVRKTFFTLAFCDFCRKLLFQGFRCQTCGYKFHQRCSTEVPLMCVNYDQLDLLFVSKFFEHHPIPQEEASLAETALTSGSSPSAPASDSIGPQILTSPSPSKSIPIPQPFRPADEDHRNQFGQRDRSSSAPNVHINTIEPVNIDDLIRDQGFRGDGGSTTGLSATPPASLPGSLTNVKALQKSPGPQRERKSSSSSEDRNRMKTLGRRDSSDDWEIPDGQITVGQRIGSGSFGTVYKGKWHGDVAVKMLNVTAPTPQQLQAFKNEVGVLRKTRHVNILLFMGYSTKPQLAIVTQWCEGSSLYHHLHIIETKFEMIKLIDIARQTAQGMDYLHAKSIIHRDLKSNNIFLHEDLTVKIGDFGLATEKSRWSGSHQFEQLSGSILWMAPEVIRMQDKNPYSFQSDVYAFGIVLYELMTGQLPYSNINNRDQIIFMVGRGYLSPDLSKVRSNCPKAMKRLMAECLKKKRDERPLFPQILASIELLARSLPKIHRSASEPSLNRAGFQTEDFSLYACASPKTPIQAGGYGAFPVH
Method in brief: as §1

[4] = molecular target: T4, kinases of the scanMAX Kinase assay panel (Homo sapiens, UniProt P25098); conditions: GRK2; 1 uM
T4 construct: purchased DiscoverX Co. (contract measurement) scanMAX Kinase assay panel
T4 sequence (P25098 1-689): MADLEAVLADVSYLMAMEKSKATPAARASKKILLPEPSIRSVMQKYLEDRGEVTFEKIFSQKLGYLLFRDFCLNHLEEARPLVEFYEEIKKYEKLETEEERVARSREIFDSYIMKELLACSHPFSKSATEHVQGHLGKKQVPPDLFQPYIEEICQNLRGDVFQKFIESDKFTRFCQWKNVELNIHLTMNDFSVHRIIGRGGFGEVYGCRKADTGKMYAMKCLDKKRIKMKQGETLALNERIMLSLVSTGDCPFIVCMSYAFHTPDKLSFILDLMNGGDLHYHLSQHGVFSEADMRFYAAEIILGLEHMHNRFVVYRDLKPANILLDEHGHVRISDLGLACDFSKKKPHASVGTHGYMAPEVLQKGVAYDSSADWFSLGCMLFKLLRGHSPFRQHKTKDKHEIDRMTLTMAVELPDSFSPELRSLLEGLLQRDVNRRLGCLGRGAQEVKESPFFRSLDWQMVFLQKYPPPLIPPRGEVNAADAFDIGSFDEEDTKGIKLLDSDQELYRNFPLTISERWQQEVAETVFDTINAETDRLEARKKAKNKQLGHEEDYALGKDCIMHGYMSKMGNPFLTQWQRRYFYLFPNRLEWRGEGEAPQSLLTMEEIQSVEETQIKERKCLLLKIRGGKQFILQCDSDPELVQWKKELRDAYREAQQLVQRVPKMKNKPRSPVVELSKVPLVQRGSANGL
Method in brief: as §1

[5] = molecular target: T5, kinases of the scanMAX Kinase assay panel (Homo sapiens, UniProt P29320); conditions: EPHA3; 1 uM
T5 construct: purchased DiscoverX Co. (contract measurement) scanMAX Kinase assay panel
T5 sequence (P29320 21-983): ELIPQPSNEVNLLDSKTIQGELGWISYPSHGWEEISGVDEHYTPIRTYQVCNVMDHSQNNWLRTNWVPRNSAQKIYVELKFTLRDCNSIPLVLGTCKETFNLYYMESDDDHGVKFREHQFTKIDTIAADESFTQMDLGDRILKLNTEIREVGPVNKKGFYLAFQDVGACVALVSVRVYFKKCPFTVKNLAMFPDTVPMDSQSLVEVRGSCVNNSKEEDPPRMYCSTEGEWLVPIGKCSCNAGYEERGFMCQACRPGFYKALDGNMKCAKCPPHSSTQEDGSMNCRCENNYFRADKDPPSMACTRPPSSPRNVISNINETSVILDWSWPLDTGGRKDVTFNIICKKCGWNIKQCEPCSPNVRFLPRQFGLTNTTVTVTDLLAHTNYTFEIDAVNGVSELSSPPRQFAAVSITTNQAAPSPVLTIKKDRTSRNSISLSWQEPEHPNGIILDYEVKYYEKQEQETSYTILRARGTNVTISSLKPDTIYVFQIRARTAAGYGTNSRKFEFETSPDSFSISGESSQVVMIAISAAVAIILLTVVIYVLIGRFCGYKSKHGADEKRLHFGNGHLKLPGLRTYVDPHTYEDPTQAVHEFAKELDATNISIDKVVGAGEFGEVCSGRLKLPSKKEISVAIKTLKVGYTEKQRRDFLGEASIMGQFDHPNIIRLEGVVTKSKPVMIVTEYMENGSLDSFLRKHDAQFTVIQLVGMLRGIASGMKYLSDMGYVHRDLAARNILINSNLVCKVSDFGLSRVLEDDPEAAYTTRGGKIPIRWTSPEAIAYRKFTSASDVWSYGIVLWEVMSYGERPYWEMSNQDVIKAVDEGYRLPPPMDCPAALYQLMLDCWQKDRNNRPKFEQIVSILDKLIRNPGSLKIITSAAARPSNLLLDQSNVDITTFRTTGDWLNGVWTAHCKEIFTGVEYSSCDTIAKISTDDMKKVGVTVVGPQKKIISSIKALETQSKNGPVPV
Method in brief: as §1

[6] = molecular target: T6, kinases of the scanMAX Kinase assay panel (Homo sapiens, UniProt P53350); conditions: PLK1; 1 uM
T6 construct: purchased DiscoverX Co. (contract measurement) scanMAX Kinase assay panel
T6 sequence (P53350 whole entry): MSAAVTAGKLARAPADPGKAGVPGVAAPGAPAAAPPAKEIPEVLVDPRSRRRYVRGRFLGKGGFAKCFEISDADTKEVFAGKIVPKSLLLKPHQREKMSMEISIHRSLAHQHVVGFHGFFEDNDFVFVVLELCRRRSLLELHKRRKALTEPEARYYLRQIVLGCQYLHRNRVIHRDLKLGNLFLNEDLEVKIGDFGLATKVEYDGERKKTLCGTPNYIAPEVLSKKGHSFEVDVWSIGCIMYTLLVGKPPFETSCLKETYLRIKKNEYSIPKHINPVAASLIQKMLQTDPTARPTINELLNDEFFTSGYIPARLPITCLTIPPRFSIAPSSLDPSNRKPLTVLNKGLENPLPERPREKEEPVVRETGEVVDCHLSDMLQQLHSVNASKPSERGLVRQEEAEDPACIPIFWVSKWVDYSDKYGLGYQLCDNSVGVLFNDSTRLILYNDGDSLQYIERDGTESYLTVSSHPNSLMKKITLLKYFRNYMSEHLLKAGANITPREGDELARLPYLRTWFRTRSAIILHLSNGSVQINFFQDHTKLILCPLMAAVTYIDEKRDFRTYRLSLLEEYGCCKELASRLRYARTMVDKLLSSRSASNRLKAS
Method in brief: as §1

[7] = molecular target: T7, kinases of the scanMAX Kinase assay panel (Homo sapiens, UniProt Q13131); conditions: AMPK-alpha1; 1 uM
T7 construct: purchased DiscoverX Co. (contract measurement) scanMAX Kinase assay panel
T7 sequence (Q13131 whole entry): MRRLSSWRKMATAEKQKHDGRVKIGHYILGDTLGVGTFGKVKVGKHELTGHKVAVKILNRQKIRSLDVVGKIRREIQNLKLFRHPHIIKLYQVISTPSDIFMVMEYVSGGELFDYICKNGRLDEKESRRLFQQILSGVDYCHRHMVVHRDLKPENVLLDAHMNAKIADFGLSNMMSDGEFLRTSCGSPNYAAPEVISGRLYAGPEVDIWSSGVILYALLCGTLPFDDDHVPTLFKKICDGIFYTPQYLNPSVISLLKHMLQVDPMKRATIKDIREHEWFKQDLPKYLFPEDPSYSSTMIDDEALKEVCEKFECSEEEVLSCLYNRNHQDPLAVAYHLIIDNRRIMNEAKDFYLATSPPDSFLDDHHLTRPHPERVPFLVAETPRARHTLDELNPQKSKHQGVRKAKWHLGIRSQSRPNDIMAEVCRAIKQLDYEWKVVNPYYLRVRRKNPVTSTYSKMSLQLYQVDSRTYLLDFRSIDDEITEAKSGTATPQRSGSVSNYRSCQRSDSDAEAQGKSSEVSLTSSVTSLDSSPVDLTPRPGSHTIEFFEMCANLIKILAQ
Method in brief: as §1

[8] = molecular target: T8, kinases of the scanMAX Kinase assay panel (Homo sapiens, UniProt Q13233); conditions: MAP3K1; 1 uM
T8 construct: purchased DiscoverX Co. (contract measurement) scanMAX Kinase assay panel
T8 sequence (Q13233 whole entry): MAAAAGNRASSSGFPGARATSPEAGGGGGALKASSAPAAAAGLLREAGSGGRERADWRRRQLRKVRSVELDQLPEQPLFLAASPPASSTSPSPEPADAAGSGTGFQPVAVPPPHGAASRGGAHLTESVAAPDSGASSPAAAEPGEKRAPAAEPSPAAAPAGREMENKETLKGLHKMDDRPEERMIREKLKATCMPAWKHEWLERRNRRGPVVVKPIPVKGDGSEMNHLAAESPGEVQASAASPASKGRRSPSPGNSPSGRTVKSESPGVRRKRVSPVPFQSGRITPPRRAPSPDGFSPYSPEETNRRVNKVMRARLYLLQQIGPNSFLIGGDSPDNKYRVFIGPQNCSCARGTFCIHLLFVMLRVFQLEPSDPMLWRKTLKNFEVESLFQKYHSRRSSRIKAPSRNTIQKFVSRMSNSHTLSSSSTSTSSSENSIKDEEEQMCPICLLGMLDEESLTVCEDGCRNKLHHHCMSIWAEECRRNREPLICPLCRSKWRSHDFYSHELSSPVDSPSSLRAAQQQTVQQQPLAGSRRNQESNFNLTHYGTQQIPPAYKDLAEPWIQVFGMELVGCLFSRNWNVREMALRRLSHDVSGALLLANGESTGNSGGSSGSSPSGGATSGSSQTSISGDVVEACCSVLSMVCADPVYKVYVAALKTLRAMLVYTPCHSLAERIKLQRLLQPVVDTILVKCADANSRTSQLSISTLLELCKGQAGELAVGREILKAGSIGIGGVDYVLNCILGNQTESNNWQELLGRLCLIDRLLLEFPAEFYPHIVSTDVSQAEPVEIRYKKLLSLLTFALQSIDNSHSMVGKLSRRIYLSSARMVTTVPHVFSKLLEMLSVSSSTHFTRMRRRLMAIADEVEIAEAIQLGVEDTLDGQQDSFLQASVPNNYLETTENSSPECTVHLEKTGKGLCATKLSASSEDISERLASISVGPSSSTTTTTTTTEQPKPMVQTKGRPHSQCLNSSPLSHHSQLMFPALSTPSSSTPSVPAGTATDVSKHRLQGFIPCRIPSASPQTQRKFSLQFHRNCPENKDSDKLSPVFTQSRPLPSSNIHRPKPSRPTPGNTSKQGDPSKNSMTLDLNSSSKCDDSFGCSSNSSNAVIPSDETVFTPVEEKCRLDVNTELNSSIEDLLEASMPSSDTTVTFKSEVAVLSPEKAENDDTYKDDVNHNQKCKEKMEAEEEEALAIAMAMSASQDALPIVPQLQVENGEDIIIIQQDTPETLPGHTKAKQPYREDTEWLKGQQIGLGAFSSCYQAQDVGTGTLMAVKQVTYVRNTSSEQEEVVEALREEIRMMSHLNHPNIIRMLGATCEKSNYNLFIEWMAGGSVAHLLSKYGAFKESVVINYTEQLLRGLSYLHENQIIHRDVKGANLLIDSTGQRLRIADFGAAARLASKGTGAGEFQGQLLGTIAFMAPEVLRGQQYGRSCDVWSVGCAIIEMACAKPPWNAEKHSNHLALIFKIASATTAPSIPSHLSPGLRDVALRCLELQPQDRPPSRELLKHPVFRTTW
Method in brief: as §1

[9] = molecular target: T9, kinases of the scanMAX Kinase assay panel (Homo sapiens, UniProt Q9H0K1); conditions: kinase SIK2; 1 uM in DMSO
T9 construct: purchased DiscoverX Co. (contract measurement) scanMAX Kinase assay panel
Method in brief: as §1

[10] = molecular target: T10, kinases of the scanMAX Kinase assay panel (Homo sapiens, UniProt Q9NSY1); conditions: BIKE; 1 uM
T10 construct: purchased DiscoverX Co. (contract measurement) scanMAX Kinase assay panel
Method in brief: as §1

[11] = molecular target: T11, kinases of the scanMAX Kinase assay panel (Homo sapiens, UniProt Q9NYL2); conditions: kinase ZAK; 1 uM in DMSO
T11 construct: purchased DiscoverX Co. (contract measurement) scanMAX Kinase assay panel
T11 sequence (Q9NYL2 whole entry): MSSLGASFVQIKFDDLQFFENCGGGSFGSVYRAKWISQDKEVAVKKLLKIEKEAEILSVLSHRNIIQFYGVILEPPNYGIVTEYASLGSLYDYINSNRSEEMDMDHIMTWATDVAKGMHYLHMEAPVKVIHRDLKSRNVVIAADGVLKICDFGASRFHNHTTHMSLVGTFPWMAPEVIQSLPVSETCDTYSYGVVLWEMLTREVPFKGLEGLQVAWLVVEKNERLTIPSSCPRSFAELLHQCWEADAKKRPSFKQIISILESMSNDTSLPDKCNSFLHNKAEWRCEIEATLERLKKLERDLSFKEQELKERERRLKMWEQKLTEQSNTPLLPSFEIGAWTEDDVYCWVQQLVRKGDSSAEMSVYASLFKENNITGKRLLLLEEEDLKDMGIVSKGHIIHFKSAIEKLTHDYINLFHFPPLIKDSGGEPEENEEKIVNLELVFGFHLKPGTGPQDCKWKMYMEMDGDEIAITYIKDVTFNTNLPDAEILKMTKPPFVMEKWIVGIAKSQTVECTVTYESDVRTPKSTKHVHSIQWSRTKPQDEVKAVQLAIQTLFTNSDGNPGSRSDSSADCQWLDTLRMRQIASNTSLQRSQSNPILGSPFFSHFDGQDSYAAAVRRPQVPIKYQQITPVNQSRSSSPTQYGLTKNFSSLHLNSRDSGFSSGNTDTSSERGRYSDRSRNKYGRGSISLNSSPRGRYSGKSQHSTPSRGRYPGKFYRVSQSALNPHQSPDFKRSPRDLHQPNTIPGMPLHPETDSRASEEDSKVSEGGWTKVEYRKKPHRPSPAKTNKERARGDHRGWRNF
Method in brief: as §1

[12] = molecular target: T12, kinases of the scanMAX Kinase assay panel (Homo sapiens, UniProt Q9Y2K2); conditions: QSK; 1 uM
T12 construct: purchased DiscoverX Co. (contract measurement) scanMAX Kinase assay panel
Method in brief: as §1

[13] = molecular target: T13, kinases of the scanMAX Kinase assay panel (Homo sapiens, UniProt Q9Y6E0); conditions: MST3; 1 uM
T13 construct: purchased DiscoverX Co. (contract measurement) scanMAX Kinase assay panel
Method in brief: as §1

T1 sequence (O00238 14-502): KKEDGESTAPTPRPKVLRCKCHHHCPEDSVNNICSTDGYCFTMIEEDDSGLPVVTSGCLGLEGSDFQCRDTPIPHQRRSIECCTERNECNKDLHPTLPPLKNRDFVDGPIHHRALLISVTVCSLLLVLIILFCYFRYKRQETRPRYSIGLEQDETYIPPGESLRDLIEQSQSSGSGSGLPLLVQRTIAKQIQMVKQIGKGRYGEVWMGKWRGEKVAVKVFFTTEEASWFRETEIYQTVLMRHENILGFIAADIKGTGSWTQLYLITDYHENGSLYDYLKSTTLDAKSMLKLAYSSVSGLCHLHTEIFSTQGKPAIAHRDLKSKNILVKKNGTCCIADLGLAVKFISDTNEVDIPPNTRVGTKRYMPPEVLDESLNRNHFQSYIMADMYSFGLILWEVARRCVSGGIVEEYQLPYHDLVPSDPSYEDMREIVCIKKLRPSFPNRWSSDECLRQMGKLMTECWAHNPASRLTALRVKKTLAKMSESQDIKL

| SMILES | remaining binding at 1 µM [1] [%] | remaining binding at 1 µM [2] [%] | remaining binding at 1 µM [3] [%] | remaining binding at 1 µM [4] [%] | remaining binding at 1 µM [5] [%] | remaining binding at 1 µM [6] [%] | remaining binding at 1 µM [7] [%] | remaining binding at 1 µM [8] [%] | remaining binding at 1 µM [9] [%] | remaining binding at 1 µM [10] [%] | remaining binding at 1 µM [11] [%] | remaining binding at 1 µM [12] [%] | remaining binding at 1 µM [13] [%] |
| --- | --- | --- | --- | --- | --- | --- | --- | --- | --- | --- | --- | --- | --- |
| CNc1nc(Nc2ccc(C(=O)N3CCOCC3)cc2OC)nc2[nH]cc(C#N)c12 [Example 1, 2-((2-methoxy-4-(morpholine-4-carbonyl)phenyl)amino)-4-(methylamino)-7H-pyrrolo[2,3-d]pyrimidine-5-carbonitrile] | 98 | 95 | 95 | 97 | 92 | 14 | 87 | 100 | 100 | 62 | 100 | 79 | 86 |
| CC1(Nc2nc(Nc3cnn([C@H]4CCN(C5COC5)C[C@@H]4F)c3Cl)nc3[nH]cc(C#N)c23)CC1 [Example 52, 2-((5-chloro-1-((3S,4S)-3-fluoro-1-(oxetane-3-yl)piperidine-4-yl)-1H-pyrazole-4-yl)amino)((1-methylcyclopropyl)amino)-7H-pyrrolo[2,3-d]pyrimidine-5-carbonitrile] | 22 | 100 | 100 | 45 | 18 | 100 | 4.3 | 81 | 33 | 0 | 88 | 87 | 25 |
| CCNc1nc(Nc2ccc(C(=O)N3CCC(N4CCOCC4)CC3)cc2OC)nc2[nH]cc(C(F)(F)F)c12 [Example 104, (4-((4-(ethylamino)-5-(trifluoromethyl)-7H-pyrrolo[2,3-d]pyrimidine-2-yl)amino)-3-methoxyphenyl)(4-morpholinopiperidine-1-yl)methanone] | 83 | 100 | 100 | 96 | 92 | 65 | 100 | 83 | 100 | 100 | 100 | 97 | 84 |
